Source: patent US8134015B2, “Compound inhibiting in vivo phosphorous transport and medicine containing the same” (Kyowa Hakko Kirin Co., Ltd., priority 2003, dated 2012)

Target: T1, rat NaPi-2b (Rattus norvegicus, UniProt Q9JJ09)
T1 construct: expressed in transfected cells; host or cells: Xenopus oocytes injected with cRNA
T1 sequence (Q9JJ09 1-695): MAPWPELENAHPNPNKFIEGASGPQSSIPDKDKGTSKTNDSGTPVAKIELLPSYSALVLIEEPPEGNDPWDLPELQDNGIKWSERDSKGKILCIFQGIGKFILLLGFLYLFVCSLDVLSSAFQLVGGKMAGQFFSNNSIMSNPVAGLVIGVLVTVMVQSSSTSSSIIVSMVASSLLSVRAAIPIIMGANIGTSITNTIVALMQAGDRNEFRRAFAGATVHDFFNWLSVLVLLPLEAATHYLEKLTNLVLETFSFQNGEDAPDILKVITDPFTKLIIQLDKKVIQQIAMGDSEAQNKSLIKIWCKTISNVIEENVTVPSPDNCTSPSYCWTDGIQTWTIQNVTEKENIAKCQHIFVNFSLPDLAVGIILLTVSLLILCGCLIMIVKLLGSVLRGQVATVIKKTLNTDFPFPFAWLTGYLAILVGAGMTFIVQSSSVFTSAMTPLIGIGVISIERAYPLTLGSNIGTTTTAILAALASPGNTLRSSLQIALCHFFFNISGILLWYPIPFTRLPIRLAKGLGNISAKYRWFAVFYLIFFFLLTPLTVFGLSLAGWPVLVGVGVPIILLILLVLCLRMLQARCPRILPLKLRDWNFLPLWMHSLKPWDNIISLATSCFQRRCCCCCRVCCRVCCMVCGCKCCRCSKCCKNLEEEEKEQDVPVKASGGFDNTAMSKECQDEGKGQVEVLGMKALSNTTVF
Assay: Sodium-dependent phosphate uptake of Xenopus oocytes which expressed NaPi-2b (32P)
Assay type: cell-based
Settings: Xenopus oocytes expressing rat NaPi-2b, 32P radioactive phosphorus; read-out: IC50 (phosphate uptake inhibitory activity)
Method in brief: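 Steps: rat NaPi-2b cDNA cloned from small intestine; cRNA made and injected into oocytes; 2-day expression; 32P phosphate uptake with compound; % inhibition at 300/100 μM taken from one curve.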

| SMILES | IC50 |
| --- | --- |
| CCN(CC)CCN(C)Cc1cccc(C(=O)Nc2cc(OCCOC)c(OCCOC)cc2C(=O)N/N=C/c2cccc(F)c2)c1 [Compound 1028, 3-{[(2-Diethylamino-ethyl)-methyl-amino]-methyl}-N-[2-(3-fluoro-benzylidene-hydrazinocarbonyl)-4,5-bis-(2-methoxy-ethoxy)-phenyl]-benzamide] | 29.1 µM |
| CCN(CC)CCN(C)Cc1cccc(C(=O)Nc2cc(OCCOC)c(OCCOC)cc2C(=O)N/N=C/c2ccc(C)cc2)c1 [Compound 1029, N-[4,5-Bis-(2-methoxy-ethoxy)-2-(4-methyl-benzylidene-hydrazinocarbonyl)-phenyl]-3-{[(2-diethylamino-ethyl)-methyl-amino]-methyl}-benzamide] | 34.7 µM |
| CCN(CC)CCN(C)Cc1cccc(C(=O)Nc2cc(OCCOC)c(OCCOC)cc2C(=O)N/N=C/c2ccc(C)c(C)c2)c1 [Compound 1030, 3-{[(2-Diethylamino-ethyl)-methyl-amino]-methyl}-N-[2-(3,4-dimethyl-benzylidene-hydrazinocarbonyl)-4,5-bis-(2-methoxy-ethoxy)-phenyl]-benzamide] | 14.2 µM |
| CCN(CC)CCN(C)Cc1cccc(C(=O)Nc2ccc(OCCOCCOC)cc2C(=O)N/N=C/c2ccc(Cl)c(C(F)(F)F)c2)c1 [Compound 1036, N-{2-(4-Chloro-3-trifluoromethyl-benzylidene-hydrazinocarbonyl)-4-[2-(2-methoxy-ethoxy)-ethoxy]-phenyl}-3-{[(2-diethylamino-ethyl)-methyl-amino]-methyl}-benzamide] | 1.5 µM |
| O=C(Nc1ccc(OCCCN2CCCCC2)cc1C(=O)N/N=C/c1ccc(Cl)c(C(F)(F)F)c1)c1cccc(CSCCO)c1 [Compound 1039, N-[2-(4-Chloro-3-trifluoromethyl-benzylidene-hydrazinocarbonyl)-4-(3-piperidin-1-yl-propoxy)-phenyl]-3-(2-hydroxy-ethylsulfanylmethyl)-benzamide] | 2.76 µM |
| COc1ccc(/C=N/NC(=O)c2cc(OCCCN3CCCCC3)ccc2NC(=O)c2cccc(CSCCO)c2)cc1 [Compound 1040, 3-(2-Hydroxy-ethylsulfanylmethyl)-N-[2-(4-methoxy-benzylidene-hydrazinocarbonyl)-4-(3-piperidin-1-yl-propoxy)-phenyl]-benzamide] | 52.2 µM |
| Cc1ccc(/C=N/NC(=O)c2cc(OCCCN3CCCCC3)ccc2NC(=O)c2cccc(CSCCO)c2)cc1C [Compound 1041, N-[2-(3,4-Dimethyl-benzylidene-hydrazinocarbonyl)-4-(3-piperidin-1-yl-propoxy)-phenyl]-3-(2-hydroxy-ethylsulfanylmethyl)-benzamide] | 10.2 µM |
| Cc1ccc(/C=N/NC(=O)c2cc(OCCN3CCCCC3)ccc2NC(=O)c2cccc(CSCCO)c2)cc1 [Compound 1042, 3-(2-Hydroxy-ethylsulfanylmethyl)-N-[2-(4-methyl-benzylidene-hydrazinocarbonyl)-4-(2-piperidin-1-yl-ethoxy)-phenyl]-benzamide] | 14.7 µM |
| Cc1ccc(/C=N/NC(=O)c2cc(OCCN3CCCCC3)ccc2NC(=O)c2cccc(CSCCO)c2)cc1C [Compound 1043, N-[2-(3,4-Dimethyl-benzylidene-hydrazinocarbonyl)-4-(2-piperidin-1-yl-ethoxy)-phenyl]-3-(2-hydroxy-ethylsulfanylmethyl)-benzamide] | 8.26 µM |
| O=C(Nc1ccc(OCCN2CCCCC2)cc1C(=O)N/N=C/c1ccc(Cl)c(C(F)(F)F)c1)c1cccc(CSCCO)c1 [Compound 1044, N-[2-(4-Chloro-3-trifluoromethyl-benzylidene-hydrazinocarbonyl)-4-(2-piperidin-1-yl-ethoxy)-phenyl]-3-(2-hydroxy-ethylsulfanylmethyl)-benzamide] | 2.13 µM |
| COc1ccc(/C=N/NC(=O)c2cc(OCCN3CCCCC3)ccc2NC(=O)c2cccc(CSCCO)c2)cc1 [Compound 1045, 3-(2-Hydroxy-ethylsulfanylmethyl)-N-[2-(4-methoxy-benzylidene-hydrazinocarbonyl)-4-(2-piperidin-1-yl-ethoxy)-phenyl]-benzamide] | 13.1 µM |

Now from value to compound:

| IC50 | SMILES |
| --- | --- |
| 3.86 µM | CCN(CC)CCN(C)Cc1cccc(C(=O)Nc2ccc(OCCOC)cc2C(=O)N/N=C/c2ccc(C)cc2)c1 [Compound 1026, 3-{[(2-Diethylamino-ethyl)-methyl-amino]-methyl}-N-[4-(2-methoxy-ethoxy)-2-(4-methyl-benzylidene-hydrazinocarbonyl)-phenyl]-benzamide] |
| 18.7 µM | CCN(CC)CCN(C)Cc1cccc(C(=O)Nc2ccc(OCCOCCOC)cc2C(=O)N/N=C/c2cccc(F)c2)c1 [Compound 1033, 3-{[(2-Diethylamino-ethyl)-methyl-amino]-methyl}-N-{2-(3-fluoro-benzylidene-hydrazinocarbonyl)-4-[2-(2-methoxy-ethoxy)-ethoxy]-phenyl}-benzamide] |
| 17.2 µM | CCN(CC)CCN(C)Cc1cccc(C(=O)Nc2ccc(OCCOCCOC)cc2C(=O)N/N=C/c2ccc(C)cc2)c1 [Compound 1034, 3-{[(2-Diethylamino-ethyl)-methyl-amino]-methyl}-N-[4-[2-(2-methoxy-ethoxy)-ethoxy]-2-(4-methyl-benzylidene-hydrazinocarbonyl)-phenyl]-benzamide] |
| 3.7 µM | CCN(CC)CCN(C)Cc1cccc(C(=O)Nc2ccc(OCCOCCOC)cc2C(=O)N/N=C/c2ccc(C)c(C)c2)c1 [Compound 1035, 3-{[(2-Diethylamino-ethyl)-methyl-amino]-methyl}-N-{2-(3,4-dimethyl-benzylidene-hydrazinocarbonyl)-4-[2-(2-methoxy-ethoxy)-ethoxy]-phenyl}-benzamide] |
| 38.5 µM | CCN(CC)CCN(C)Cc1cccc(C(=O)Nc2ccc(OCCOCCOC)cc2C(=O)N/N=C/c2ccc(OC)cc2)c1 [Compound 1037, 3-{[(2-Diethylamino-ethyl)-methyl-amino]-methyl}-N-{2-(4-methoxy-benzylidene-hydrazinocarbonyl)-4-[2-(2-methoxy-ethoxy)-ethoxy]-phenyl}-benzamide] |
| 3.35 µM | CCN(CC)CCN(C)Cc1cccc(C(=O)Nc2ccc(OCCCN3CCCCC3)cc2C(=O)N/N=C/c2ccc(Cl)c(C(F)(F)F)c2)c1 [Compound 1038, N-[2-(4-Chloro-3-trifluoromethyl-benzylidene-hydrazinocarbonyl)-4-(3-piperidin-1-yl-propoxy)-phenyl]-3-{[(2-diethylamino-ethyl)-methyl-amino]-methyl}-benzamide] |
| < 1 µM | CCN(CC)CCN(C)Cc1cccc(C(=O)Nc2ccc(OCC3CCCCC3)cc2C(=O)N/N=C/c2cccc(F)c2)c1 [Compound 1046, N-[4-Cyclohexylmethoxy-2-(3-fluoro-benzylidene-hydrazinocarbonyl)-phenyl]-3-{[(2-diethylamino-ethyl)-methyl-amino]-methyl}-benzamide] |
| < 1 µM | CCN(CC)CCN(C)Cc1cccc(C(=O)Nc2ccc(OCC3CCCCC3)cc2C(=O)N/N=C/c2ccc(C)cc2)c1 [Compound 1047, N-[4-Cyclohexylmethoxy-2-(4-methyl-benzylidene-hydrazinocarbonyl)-phenyl]-3-{[(2-diethylamino-ethyl)-methyl-amino]-methyl}-benzamide] |
| < 1 µM | CCN(CC)CCN(C)Cc1cccc(C(=O)Nc2ccc(OCC3CCCCC3)cc2C(=O)N/N=C/c2ccc(C)c(C)c2)c1 [Compound 1048, N-[4-Cyclohexylmethoxy-2-(3,4-dimethyl-benzylidene-hydrazinocarbonyl)-phenyl]-3-{[(2-diethylamino-ethyl)-methyl-amino]-methyl}-benzamide] |
| < 1 µM | CCN(CC)CCN(C)Cc1cccc(C(=O)Nc2ccc(OCC3CCCCC3)cc2C(=O)N/N=C/c2ccc(Cl)c(C(F)(F)F)c2)c1 [Compound 1049, N-[2-(4-Chloro-3-trifluoromethyl-benzylidene-hydrazinocarbonyl)-4-cyclohexylmethoxy-phenyl]-3-{[(2-diethylamino-ethyl)-methyl-amino]-methyl}-benzamide] |
| 1.42 µM | CCN(CC)CCN(C)Cc1cccc(C(=O)Nc2ccc(OCC3CCCCC3)cc2C(=O)N/N=C/c2ccc(OC)cc2)c1 [Compound 1050, N-[4-Cyclohexylmethoxy-2-(4-methoxy-benzylidene-hydrazinocarbonyl)-phenyl]-3-{[(2-diethylamino-ethyl)-methyl-amino]-methyl}-benzamide] |

Same assay, conditions: phosphate uptake, oocytes expressing rat NaPi-2b; 300 μM, determined from inhibition curve

| inhibition at 300 µM | SMILES |
| --- | --- |
| 58.8% | CCN(CC)CCN(C)Cc1cccc(C(=O)Nc2cc(OCCOC)c(OCCOC)cc2C(=O)N/N=C/c2ccc(Cl)c(C(F)(F)F)c2)c1 [Compound 1031, N-[2-(4-Chloro-3-trifluoromethyl-benzylidene-hydrazinocarbonyl)-4,5-bis-(2-methoxy-ethoxy)-phenyl]-3-{[(2-diethylamino-ethyl)-methyl-amino]-methyl}-benzamide] |
| 40% | CCN(CC)CCN(C)Cc1cccc(C(=O)Nc2cc(OCCOC)c(OCCOC)cc2C(=O)N/N=C/c2ccc(OC)cc2)c1 [Compound 1032, 3-{[(2-Diethylamino-ethyl)-methyl-amino]-methyl}-N-[2-(4-methoxy-benzylidene-hydrazinocarbonyl)-4,5-bis-(2-methoxy-ethoxy)-phenyl]-benzamide] |
